Columns and labels:
Assay type in all cases: in vivo
Aedes aegypti [1] = assay: Warm Body assay, mosquito landings on treated warm body; settings: Aedes aegypti, read-out: Percentage of repellence of mosquitoes Aedes aegypti landing on the warm body
Summary of the method: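 Compounds in ethanol (100 μL, various concentrations) were applied to a sandblasted glass dish covering the warm body (28.3 cm^2), with ethanol as control. Landings were counted automatically from 30 non-blood-fed, sugar-fed Aedes aegypti Rockefeller females aged 5–10 days, under 150 lux.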

Aedes aegypti [2] = assay: Arm-in-cage test on human volunteers; settings: arm treated with 20%, three human volunteers
Description: The controlling effect, repellence & spatial repellence, according to the present invention is also determined according to an arm in the box method adapted from the WHO Guidelines for efficacy testing of mosquito repellents for human skin (WHO/CDS/NTD/WHOPES/2009.4). The readiness of 100 hungry female mosquitoes A. aegypti to a test substance is assessed by comparing the results of an untreated arm to a treated in when inserted into the cage (40×40×40 cm) for 30 seconds (negative control) three times. Further information is provided in the accompanying examples.
The Arm in the box method was adapted from the WHO Guidelines for efficacy testing of mosquito repellents for human skin (WHO/CDS/NTD/WHOPES/2009.4). The readiness of 100 hungry female mosquitoes A. aegypti to probe is assessed by inserting the untreated arm of human volunteers into the cage (40×40×40cm) for 30 seconds (negative control) in order to determine probing activity. Then, the product is applied onto the skin of the forearm of the human volunteer (1 mL per 600 cm^2) and after 5 minutes, this arm is inserted into the cage and exposed for 3 minutes. The assay take place in temperature (27±2° C.) and humidity (80±10% RH) regulated room on three different human volunteers.

Anopheles gambiae = assay: Warm Body assay, mosquito landings on treated warm body
Summary of the method: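 Compounds in ethanol, 100 μL at various concentrations, applied to a sandblasted glass dish (28.3 cm^2) covering a warm body simulating a host. Mosquito landings counted per stimulus against an ethanol-only control to gauge repellence.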

Aedes aegypti [3] = assay: Free flying room assay, spatial repellence with human volunteer
Excerpt: The goal of this large-scale test is to assess the propensity of stimulus released in the air to protect a human volunteer by limiting the mosquito presence in a protected space and the number of landing/biting. The protocol used to carry the test is following the guidelines indicated in WHO (2013; ISBN 978 92 4 150502 4).
A group of 50 Aedes aegypti female mosquitoes were introduced in one chamber of 25 m^3 one hour before the test started. The product was applied in the other chamber of 25 m^3 (“treated chamber”) and let evaporate for 30 minutes. The test started when the window separating the two chambers was opened in a tilt-on manner for another 30 minutes. Twenty minutes after the window was opened, a volunteer entered in the “treated chamber” and sat down for 10 minutes, exposing the forearm for the last 3 minutes to determine the probing activity (Protective Efficacy). Then, the connecting window was closed and the number of mosquitoes in each of the chambers was counted (Spatial Repellency). The negative controls were carried out following the same procedure but without the application of the stimulus. Three replicates of each treatment and of the negative control were conducted with three different volunteers.

CCCc1cc(OC)c(OC)c(OC)c1 [compound 1975, 1,2,3-trimethoxy-5-propylbenzene]
pest or weed control at 3.2 µg/mL (Aedes aegypti [1]; 0.0032 mg/mL (Table 1)): 33%
pest or weed control at 7.1 µg/mL (Aedes aegypti [1]; 0.0071 mg/mL (Table 1)): 10%
pest or weed control at 16 µg/mL (Aedes aegypti [1]; 0.016 mg/mL (Table 1)): 0%
pest or weed control at 35.7 µg/mL (Aedes aegypti [1]; 0.0357 mg/mL (Table 1)): 66%
pest or weed control at 53 µg/mL (Aedes aegypti [1]; 0.053 mg/mL (Table 1)): 30%
pest or weed control at 80 µg/mL (Aedes aegypti [1]; 0.08 mg/mL (Table 1)): 93%
pest or weed control at 119 µg/mL (Aedes aegypti [1]; 0.119 mg/mL (Table 1)): 36%
pest or weed control at 178 µg/mL (Aedes aegypti [1]; 0.178 mg/mL (Table 1)): 83%
pest or weed control at 267 µg/mL (Aedes aegypti [1]; 0.267 mg/mL (Table 1)): 87%
pest or weed control at 400 µg/mL (Aedes aegypti [1]; 0.4 mg/mL (Table 1)): 94%
pest or weed control at 598 µg/mL (Aedes aegypti [1]; 0.598 mg/mL (Table 1)): 99%
pest or weed control at 890 µg/mL (Aedes aegypti [1]; 0.89 mg/mL (Table 1)): 95%
pest or weed control at 2000 µg/mL (Aedes aegypti [1]; 2 mg/mL (Table 1)): 96%
pest or weed control at 4470 µg/mL (Aedes aegypti [1]; 4.47 mg/mL (Table 1)): 98%
pest or weed control at 10000 µg/mL (Aedes aegypti [1]; 10 mg/mL (Table 1)): 96%
reduction of the number of mosquito Aedes aegypti landings (Aedes aegypti [2]): 99.4%±0.4%
pest or weed control at 3.2 µg/mL (Anopheles gambiae; Anopheles gambiae, 0.0032 mg/mL (Table 5), read-out: Percentage of repellence of mosquitoes Anopheles gambiae landing on the warm body): 0%
pest or weed control at 7.1 µg/mL (Anopheles gambiae; Anopheles gambiae, 0.0071 mg/mL (Table 5), read-out: Percentage of repellence of mosquitoes Anopheles gambiae landing on the warm body): 5%
pest or weed control at 16 µg/mL (Anopheles gambiae; Anopheles gambiae, 0.016 mg/mL (Table 5), read-out: Percentage of repellence of mosquitoes Anopheles gambiae landing on the warm body): 78%
pest or weed control at 53 µg/mL (Anopheles gambiae; Anopheles gambiae, 0.053 mg/mL (Table 5), read-out: Percentage of repellence of mosquitoes Anopheles gambiae landing on the warm body): 23%
pest or weed control at 80 µg/mL (Anopheles gambiae; Anopheles gambiae, 0.08 mg/mL (Table 5), read-out: Percentage of repellence of mosquitoes Anopheles gambiae landing on the warm body): 0%
pest or weed control at 400 µg/mL (Anopheles gambiae; Anopheles gambiae, 0.4 mg/mL (Table 5), read-out: Percentage of repellence of mosquitoes Anopheles gambiae landing on the warm body): 94%
pest or weed control at 2000 µg/mL (Anopheles gambiae; Anopheles gambiae, 2 mg/mL (Table 5), read-out: Percentage of repellence of mosquitoes Anopheles gambiae landing on the warm body): 95%
pest or weed control at 4470 µg/mL (Anopheles gambiae; Anopheles gambiae, 4.47 mg/mL (Table 5), read-out: Percentage of repellence of mosquitoes Anopheles gambiae landing on the warm body): 100%
pest or weed control at 10000 µg/mL (Anopheles gambiae; Anopheles gambiae, 10 mg/mL (Table 5), read-out: Percentage of repellence of mosquitoes Anopheles gambiae landing on the warm body): 98%
repulsion (Anopheles gambiae; all doses ≥0.04% applied on the Warm Body (Table 5)): > 90%
mosquitoes landed on the volunteer (Aedes aegypti [3]; in 3 minutes, negative control 60.7±2.5 landings): 15.7±3.1
Spatial Repellence (Aedes aegypti [3]; large scale assay, 25 m3 chambers, compound released in the air): 43.9 ± 9.1%
Protective efficacy (Aedes aegypti [3]; large scale assay, probing on volunteer forearm, 3 minutes): 74.2 ± 4.4%
mosquito entered the treated chamber (Aedes aegypti [3]; negative control 82.5±3.7%): 46.3±7.5%

From patent publication US20250113823A1, “Arthropod Control Compositions” (priority 2022, published 2025)
